Legend:
[1] = system: clinical strains of Acinetobacter baumannii; experiment: Minimum inhibitory concentration (CLSI M07), Example 1, clinical strains; format: cell-based; conditions: combination MIC = sum of the concentrations of the two compounds
Experimental: (§1) The minimum inhibitory concentration (MIC) was determined in accordance with the requirements of the Clinical and Laboratory Standards Institute (CLSI) M07 (for aerobic bacteria).
3.1 The compounds were diluted with water up to 100 times of the highest concentration tested.
The dilution steps are as follows: first dilute the compounds or antibiotics to 100 times of the highest final concentration tested, and then:
A 50 μL of sterile water and 50 μL of avibactam sodium mother liquid were added into the A row of the second 96-well plate, and 50 μL of water was added into each of the remaining wells. A 50 μL of liquid was pipetted from the A row and added into the B row; after being pipetted up and down to even, 50 μL of the solution was pipetted and added to the C row, and diluted in a 2-fold gradient in turn for a total of 6 times and then, 50 μL was removed from each well of the G row to obtain the compound solution diluted to a 2-fold gradient and then 4 μL was transferred to a 96-well test plate.
Aerobic bacteria: the strains were inoculated on MHA one day in advance and incubated overnight at 37° C. On the day of the assay, 5-6 single colonies were picked and suspended evenly in saline, and the bacterial concentration was adjusted to the turbidity of 0.5 McFarland standard (concentration is about 1×10^8 CFU/mL). The bacterial suspension was diluted 200 times with the corresponding liquid culture medium (Table 1), i.e., at a bacterial concentration of ~5×10^5 CFU/ml, then 192 μL was transferred to a 96-well round bottom plate to obtain the test plate. Then, the 96-well round bottom plate obtained above was placed into an incubator at 37° C. and 85% humidity to incubate for 20 h.

[2] = system: Acinetobacter baumannii strains; experiment: Minimum inhibitory concentration (CLSI M07), Example 2, 20 strains; format: cell-based
Experimental: as §1
3.1 The compounds were diluted with DMSO up to 100 times of the highest concentration tested.
The steps of manual dilution are as follows (example): firstly, the compound or antibiotic was diluted to 100 times of the maximum final concentration tested, then 60 μL of compound mother liquor was added to the first column of the 96-well plate, and 30 μL of DMSO was added to each well in the second to the 12th column; 30 μL of the liquid was transferred from the first column to the second column. After being pipetted up and down to even, 30 μL was transferred to the third column, and was diluted in sequence at a 2-fold gradient for a total of 10 times; then 30 μL was removed from each well in the 11th column, then a compound solution diluted at 2-fold gradient was obtained and 1 μL was transferred to a 96-well test plate.
Aerobic bacteria: the strains were inoculated on MHA one day in advance and incubated overnight at 37° C. On the day of the assay, 5-6 single colonies were picked and suspended evenly in saline, and the bacterial concentration was adjusted to the turbidity of 0.5 McFarland standard (concentration is about 1×10^8 CFU/mL). The bacterial suspension was diluted at 200-fold with the corresponding liquid culture medium (Table 1), i.e., the bacterial concentration was ~5×10^5 CFU/ml, and then 100 μL of the liquid was transferred to a 96-well round bottom plate (the 96-well plate with compound prepared in 4.2, Echo method) to obtain the test plate. If the compound was manually diluted, then 99 μL of the solution was transferred into a 96-well round bottom plate. The 96-well round bottom plate obtained above was placed into an incubator at 37° C. and 85% humidity to incubate for 20 h.

[3] = Pharmacokinetics in plasma and bronchoalveolar lavage fluid of female CD-1 mice; format: in vivo; conditions: mouse, in vivo
Experimental: An appropriate amount of the test drug was accurately weighed and mixed with the appropriate volume of vehicle (5% DMSO+0.5% Tween 80 in normal saline) to obtain a clear solution for the test in Table 9. The formulation solution for injection was prepared to sterile filtration through a 0.22 μm filter prior to administration. The mice were dosed with the drug within 30 min after the formulated solution for injection was prepared. A 1.5 mL of the formulation solution for injection was transferred into a polypropylene microcentrifuge tube for dose verification by LC/UV or LC-MS/MS.
All blood samples were transferred to pre-frozen EDTA-K2 tubes and placed on wet ice until centrifugation. […]
Plasma: approximately 100 μL of blood sample was transferred into pre-cooled commercial EDTA-K2 tubes and placed on wet ice until centrifugation. After the blood samples were centrifuged at approximately 4° C. and 3, 200 g for 10 min, plasma was collected and transferred to pre-labeled 96-well plates or polypropylene tubes, flash frozen on dry ice, and stored at ≤−60° C. until the analysis by LC-MS/MS.
Serum: approximately 100 μL of blood sample was transferred into a tube without anticoagulant and placed on wet ice for approximately 30 min and centrifuged at 4° C. and 3,000 g for 10 min, and the serum was collected and transferred into pre-labeled PP tubes placed on wet ice. After the completion of all the collections, serum samples were stored at −60° C. until being sent to the animal experimental team to determine urea concentration.
Bronchoalveolar lavage fluid (BALF): pre-cooled tracheo-alveolar lavage fluid was injected into the trachea or predefined bronchi. After a full expansion of the lung tissue, the lavage fluid was slowly drawn out with a syringe 30 s later. The lung was lavaged three times. During the last lavage, the lung tissue was gently squeezed to restore the fluid. To prevent contamination of other lung tissues, the corresponding bronchi were ligated. Both lungs of the mice were perfused with 0.8 mL.
[…] Approximately 200 μL of the BALF samples were transferred into a polypropylene tube, rapidly frozen on dry ice, maintained at ≤−60° C., and sent to the animal experimental team to determine urea concentration. The remaining BALF samples (approximately 600 μL) were rapidly frozen on dry ice and maintained at ≤−60° C. until being submitted for drug concentration analysis by LC-MS/MS.

[4] = system: Acinetobacter baumannii clinical strains; experiment: Information of drug resistance of 10 clinical strains; format: cell-based; set-up: key: S: Drug Susceptible; I: Drug Intermediate; R: Drug Resistant

NC(=O)[C@@H]1CC[C@@H]2CN1C(=O)N2OS(=O)(=O)[O-].[Na+] [Avibactam sodium, avibactam sodium]
48.7 mL/min/kg: Cl ([3]; iv, 150 mg/kg)
more than 50%: Part of the dosing interval with free plasma concentration above the MIC of strain BAA-1795 [3] | Part of the dosing interval with plasma concentration above the MIC of strain BAA-1795 [3]
>128 µg/mL: MIC50 ([2]; Example 2, 20 strains) | MIC90 ([2]; Example 2, 20 strains) | MIC range ([2]; Example 2, 20 strains) | MIC ([2]; strain ARLG-1791) | MIC ([2]; strain ARLG-1809) | MIC ([2]; strain ARLG-1852) | MIC ([2]; strain ARLG-1853) | MIC ([2]; strain ARLG-1881) | MIC ([2]; strain ATCC 17978) | MIC ([2]; strain ATCC 19606) | MIC ([2]; strain ATCC-BAA-1605) | MIC ([2]; strain ATCC-BAA-1789) | MIC ([2]; strain ATCC-BAA-1790) | MIC ([2]; strain ATCC-BAA-1791) | MIC ([2]; strain ATCC-BAA-1792) | MIC ([2]; strain ATCC-BAA-1793) | MIC ([2]; strain ATCC-BAA-1794) | MIC ([2]; strain ATCC-BAA-1795) | MIC ([2]; strain ATCC-BAA-1796) | MIC ([2]; strain ATCC-BAA-1797) | MIC ([2]; strain ATCC-BAA-1798) | MIC ([2]; strain ATCC-BAA-1799) | MIC ([2]; strain ATCC-BAA-1800)
0.0257: AUC Ratio [3]
103 min: MRT0-last, BALF ([3]; iv, 150 mg/kg)
1319 ng·h/mL: AUC0-last, BALF ([3]; iv, 150 mg/kg)
45.7 min: T1/2, BALF ([3]; iv, 150 mg/kg)
51289 ng·h/mL: AUC0-last, plasma ([3]; iv, 150 mg/kg)
73.8 min: T1/2, plasma ([3]; iv, 150 mg/kg)
26.3 min: MRT0-last, plasma ([3]; iv, 150 mg/kg)
2 µg/mL: MIC of the strain BAA-1795 (component in the combination) ([2]; strain BAA-1795, sulbactam/avibactam 4:1, concentration of the named component)
>32 µg/mL: MIC50 [1] | MIC90 [1] | MIC range [1]

CO/N=C(\C(=O)N[C@@H]1C(=O)N2C(C(=O)O)=C(COC(N)=O)CS[C@H]12)c1ccco1 [Cefuroxime]
R: Drug resistance ([4]; strain TNP041702) | Drug resistance ([4]; strain TNP041703) | Drug resistance ([4]; strain TNP041704) | Drug resistance ([4]; strain TNP041705) | Drug resistance ([4]; strain TNP041706) | Drug resistance ([4]; strain TNP041707) | Drug resistance ([4]; strain TNP041708) | Drug resistance ([4]; strain TNP041709) | Drug resistance ([4]; strain TNP041710) | Drug resistance ([4]; strain TNP041711)

CC(C)(O/N=C(\C(=O)N[C@@H]1C(=O)N2C(C(=O)[O-])=C(C[n+]3ccccc3)CS[C@H]12)c1csc(N)n1)C(=O)O [Ceftazidime]
R: Drug resistance ([4]; strain TNP041702) | Drug resistance ([4]; strain TNP041703) | Drug resistance ([4]; strain TNP041704) | Drug resistance ([4]; strain TNP041705) | Drug resistance ([4]; strain TNP041706) | Drug resistance ([4]; strain TNP041707) | Drug resistance ([4]; strain TNP041708) | Drug resistance ([4]; strain TNP041709) | Drug resistance ([4]; strain TNP041710) | Drug resistance ([4]; strain TNP041711)

Gentamicin
S: Drug resistance ([4]; strain TNP041706)
R: Drug resistance ([4]; strain TNP041702) | Drug resistance ([4]; strain TNP041703) | Drug resistance ([4]; strain TNP041704) | Drug resistance ([4]; strain TNP041705) | Drug resistance ([4]; strain TNP041707) | Drug resistance ([4]; strain TNP041708) | Drug resistance ([4]; strain TNP041709) | Drug resistance ([4]; strain TNP041710) | Drug resistance ([4]; strain TNP041711)

C[C@@H](O)[C@H]1C(=O)N2C(C(=O)O)=C(S[C@@H]3CN[C@H](C(=O)N(C)C)C3)[C@H](C)[C@H]12 [Meropenem]
R: Drug resistance ([4]; strain TNP041702) | Drug resistance ([4]; strain TNP041703) | Drug resistance ([4]; strain TNP041704) | Drug resistance ([4]; strain TNP041705) | Drug resistance ([4]; strain TNP041706) | Drug resistance ([4]; strain TNP041707) | Drug resistance ([4]; strain TNP041708) | Drug resistance ([4]; strain TNP041709) | Drug resistance ([4]; strain TNP041710) | Drug resistance ([4]; strain TNP041711)

CO/N=C(\C(=O)N[C@@H]1C(=O)N2C(C(=O)[O-])=C(C[N+]3(C)CCCC3)CS[C@H]12)c1csc(N)n1 [Cefepime]
R: Drug resistance ([4]; strain TNP041702) | Drug resistance ([4]; strain TNP041703) | Drug resistance ([4]; strain TNP041704) | Drug resistance ([4]; strain TNP041705) | Drug resistance ([4]; strain TNP041706) | Drug resistance ([4]; strain TNP041707) | Drug resistance ([4]; strain TNP041708) | Drug resistance ([4]; strain TNP041709) | Drug resistance ([4]; strain TNP041710) | Drug resistance ([4]; strain TNP041711)

CO/N=C(\C(=O)N[C@@H]1C(=O)N2C(C(=O)O)=C(COC(C)=O)CS[C@H]12)c1csc(N)n1 [Cefotaxime]
R: Drug resistance ([4]; strain TNP041702) | Drug resistance ([4]; strain TNP041703) | Drug resistance ([4]; strain TNP041704) | Drug resistance ([4]; strain TNP041705) | Drug resistance ([4]; strain TNP041706) | Drug resistance ([4]; strain TNP041707) | Drug resistance ([4]; strain TNP041708) | Drug resistance ([4]; strain TNP041709) | Drug resistance ([4]; strain TNP041710) | Drug resistance ([4]; strain TNP041711)

C[C@@H](O)[C@H]1C(=O)N2C(C(=O)O)=C(SCCN=CN)C[C@H]12 [Imipenem]
R: Drug resistance ([4]; strain TNP041702) | Drug resistance ([4]; strain TNP041703) | Drug resistance ([4]; strain TNP041704) | Drug resistance ([4]; strain TNP041705) | Drug resistance ([4]; strain TNP041706) | Drug resistance ([4]; strain TNP041707) | Drug resistance ([4]; strain TNP041708) | Drug resistance ([4]; strain TNP041709) | Drug resistance ([4]; strain TNP041710) | Drug resistance ([4]; strain TNP041711)

Cc1nnc(SCC2=C(C(=O)O)N3C(=O)[C@@H](NC(=O)Cn4cnnn4)[C@H]3SC2)s1 [Cefazolin]
R: Drug resistance ([4]; strain TNP041702) | Drug resistance ([4]; strain TNP041703) | Drug resistance ([4]; strain TNP041704) | Drug resistance ([4]; strain TNP041705) | Drug resistance ([4]; strain TNP041706) | Drug resistance ([4]; strain TNP041707) | Drug resistance ([4]; strain TNP041708) | Drug resistance ([4]; strain TNP041709) | Drug resistance ([4]; strain TNP041710) | Drug resistance ([4]; strain TNP041711)

CCN1CCN(C(=O)N[C@@H](C(=O)N[C@@H]2C(=O)N3[C@@H]2SC(C)(C)[C@@H]3C(=O)O)c2ccccc2)C(=O)C1=O [Piperacillin]
R: Drug resistance ([4]; strain TNP041702) | Drug resistance ([4]; strain TNP041703) | Drug resistance ([4]; strain TNP041704) | Drug resistance ([4]; strain TNP041705) | Drug resistance ([4]; strain TNP041706) | Drug resistance ([4]; strain TNP041707) | Drug resistance ([4]; strain TNP041708) | Drug resistance ([4]; strain TNP041709) | Drug resistance ([4]; strain TNP041710) | Drug resistance ([4]; strain TNP041711)

NCC[C@H](O)C(=O)N[C@@H]1C[C@H](N)[C@@H](O[C@H]2O[C@H](CN)[C@@H](O)[C@H](O)[C@H]2O)[C@H](O)[C@H]1O[C@H]1O[C@H](CO)[C@@H](O)[C@H](N)[C@H]1O [Amikacin]
R: Drug resistance ([4]; strain TNP041702) | Drug resistance ([4]; strain TNP041703) | Drug resistance ([4]; strain TNP041704) | Drug resistance ([4]; strain TNP041705) | Drug resistance ([4]; strain TNP041707) | Drug resistance ([4]; strain TNP041709) | Drug resistance ([4]; strain TNP041710) | Drug resistance ([4]; strain TNP041711)
S: Drug resistance ([4]; strain TNP041706) | Drug resistance ([4]; strain TNP041708)

Source: patent US12697325B2 (TENNOR THERAPEUTICS (SUZHOU) LIMITED, priority 2021, dated 2026)
